Reference: patent US20150119327A1, “DRUG SCREENING PLATFORM FOR RETT SYNDROME” (THE REGENTS OF THE UNIVERSITY OF CALIFORNIA, priority 2012, published 2015)

Legend:
Na^+ current = format: cell-based, human
TRPC6-mutant neurons = assay: VGLUT1 puncta / glutamatergic synapse number in TRPC6-mutant neurons (rescue); format: cell-based, human; conditions: 10 ηg/mL for two weeks
Protocol: Neuronal tracing was performed on neurons for which that the shortest dendrite was at least three-times longer than the cell soma diameter, using a semi-automatic ImageJ plug-in (NeuroJ). Spines and VGLUT1 puncta were quantified after three-dimensional reconstruction of z-stack confocal images. Only neurons with spines were scored. Pictures were taken randomly for each individual and from two different experiments, using at least two different clones. Quantification was done blindly to the genotype of the cells. All experiments were performed with independent clones and different controls. For the rescue experiments, 10 ηg/mL of IGF1 (Peprotech) was added to neuronal cultures for 2 weeks.

human neurons [1] = conditions: cited from earlier work
human neurons [2] = assay: Synapse quantification by Odyssey in-cell western in 96- or 24-well plates; format: cell-based; conditions: preliminary data
Source text: Fibroblasts from patients are reprogrammed to a pluripotent state and further differentiated into neuro progenitor cells (NPCs). These NPCs can be expanded in appropriated culture conditions and, under the right signals, induced to differentiated into postmitotic neurons (see schematic; FIG. 11). Several adjustments were done on the neuronal differentiation protocol, reducing by half the time needed to generate neurons from NPCs. Such adjustments include specific factors and cell manipulations at different stages of the protocol. At this stage, disease neurons can reveal a phenotype that is related to the mutations on the MeCP2 gene. We focused on synapse quantification. Instead of manual synapse counting, we are using an Odyssey machine that can estimate the number of synapses by detecting specific wavelengths in a 96- or 24-well plates (see FIG. 11). […] Alternatively, we are using specific synaptic tools to visualize synaptogeneses in real time that could be detected by any time-lapse fluorescence microscope.

RTT-like symptoms = conditions: mouse model; cited from earlier work
TRPC6 = target: T1, TRPC6 (Homo sapiens, UniProt Q9Y210); conditions: cited from earlier work
T1 sequence (Q9Y210 1-931): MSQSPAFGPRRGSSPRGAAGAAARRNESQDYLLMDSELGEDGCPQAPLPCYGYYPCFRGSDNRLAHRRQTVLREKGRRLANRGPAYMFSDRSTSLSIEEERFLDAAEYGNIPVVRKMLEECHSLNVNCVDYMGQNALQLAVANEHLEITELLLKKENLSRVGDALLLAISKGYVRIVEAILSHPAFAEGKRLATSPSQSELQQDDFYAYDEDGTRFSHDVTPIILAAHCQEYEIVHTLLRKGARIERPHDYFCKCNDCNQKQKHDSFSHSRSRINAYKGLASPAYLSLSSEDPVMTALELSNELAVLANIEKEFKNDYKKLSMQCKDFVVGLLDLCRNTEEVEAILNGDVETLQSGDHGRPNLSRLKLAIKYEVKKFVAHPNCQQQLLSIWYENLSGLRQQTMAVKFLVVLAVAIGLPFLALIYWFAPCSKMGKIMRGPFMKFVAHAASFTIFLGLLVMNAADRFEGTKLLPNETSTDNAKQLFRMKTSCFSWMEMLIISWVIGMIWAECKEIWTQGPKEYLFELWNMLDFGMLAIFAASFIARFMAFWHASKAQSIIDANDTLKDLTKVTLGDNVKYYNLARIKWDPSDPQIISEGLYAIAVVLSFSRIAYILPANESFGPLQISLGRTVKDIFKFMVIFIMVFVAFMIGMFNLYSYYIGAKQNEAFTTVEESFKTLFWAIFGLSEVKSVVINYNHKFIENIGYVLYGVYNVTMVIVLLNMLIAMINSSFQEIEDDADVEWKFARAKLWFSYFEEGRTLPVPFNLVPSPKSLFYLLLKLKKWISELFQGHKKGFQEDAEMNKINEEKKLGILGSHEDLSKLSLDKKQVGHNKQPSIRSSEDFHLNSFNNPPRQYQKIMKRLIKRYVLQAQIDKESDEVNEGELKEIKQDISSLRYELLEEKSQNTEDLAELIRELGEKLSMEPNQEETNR

K^+ current = assay: Whole-cell patch clamp recording of K+ current in iPSC-derived neuron; format: cell-based, human; conditions: 20 mM
Protocol: Whole-cell patch clamp recordings were performed from cells cultured in the absence of astrocytes after approximately 6 weeks of differentiation. Before recordings, the growth media was removed and replaced with a bath solution comprised of (in mM): 130 NaCl, 3 KCl, 1 CaCl2, 1 MgCl2, HEPES, and 10 glucose (pH 7.4) at room temperature (22-24° C.). Electrodes for whole cell recording were pulled on a Flaming/Brown micropipette puller (Model P-87, Sutter Instrument, Novato, Calif.) from filamented borosilicate capillary glass (1.2 mm OD, 0.69 mm ID, World Precision Instruments, Sarasota, Fla.). The electrodes were fire-polished, and resistances were typically 2-5 MΩ for voltage-clamp experiments and 7-9 MΩ for current-clamp experiments. The pipette solution contained (in mM): 138 KCl, 0.2 CaCl2, 1 MgCl2, 10 HEPES (Na^+ salt), and 10 EGTA, (pH 7.4). The osmolarity of all solutions was adjusted to 290 mOsM. All chemicals were purchased from Sigma-Aldrich (St. Louis, Mo.) except MgCl2 (J.T. Baker, Phillipsburg, N.J.). Current traces in voltage clamp were leak-subtracted. Liquid junction potentials were nulled for each individual cell with the Axopatch 1C amplifier (Molecular Devises, Sunnyvale, Calif.).

For NC1=N[C@H](O)[C@H]2[C@H]3O[C@]4(O)O[C@@H]([C@@H](O)[C@@]2(N1)[C@@H]4O)[C@]3(O)CO [Tetrodotoxin (TTX), Tetrodotoxin], the “Na^+ current” value (Na^+ current) was “blocked”.
In the case of “IGF-1: Insulin-like growth factor 1 (IGF-1), also referred to as somatomedin C”, the glutamatergic synapse number (TRPC6-mutant neurons) is listed as “increase”, the RTT-like symptoms (human neurons [1]) is listed as “reversal” and the synapse number (human neurons [1]) is listed as “increase”. The “synapse number estimate (Odyssey), response to drug” value (human neurons [2]) was “small alterations” and the RTT-like symptoms (RTT-like symptoms) was “reversal”.
In the case of O=C(O)c1ccccc1Nc1cccc(C(F)(F)F)c1 [FFA, flufenamic acid], the “currents through TRPC6 channel” value (TRPC6) is listed as “increases the amplitude”.
For CC[N+](CC)(CC)CC [tetraethalammonium (TEA), tetraethalammonium], the “K^+ current” value (K^+ current) was “blocked”.
In the case of CC(C)=CCC[C@]1(C)[C@@H](CC=C(C)C)C[C@@]2(CC=C(C)C)C(=O)[C@]1(C(=O)C(C)C)C(=O)C(CC=C(C)C)=C2O [Hyperforin, hyperforin], the TRPC6 activation (TRPC6) is listed as “specifically activates”.
